From patent US11026942B2, “Agent for preventing and/or treating Alzheimer's disease” (KYOTO UNIVERSITY, priority 2015, dated 2021) come the findings set out here.

Holding throughout (type): cell-based, human
One assay relates to Aβ40. The following applies: secondary screening, FAD1 iPS cell-derived nerve cells, numerical value (Aβ change rate). The text has this: To perform induction from iPS cells to the cerebral cortex nerve early and with high reproducibility, iPS cells introduced with human Neurogenin 2 gene (NGN2) linked to doxycycline-inducible promoter by using PiggyBac were used (FIG. 1a, FIG. 1b, FIG. 4a and FIG. 4b). IPS cells prepared from 4 patients with familial Alzheimer's disease (FAD), 2 patients with sporadic Alzheimer's disease (SAD) and 4 healthy individuals (HC) were used. The iPS cells were established by the method described in Okita K et al., Nature.
Structural formulas (those in the form of salt or halide are also described as free form) and the general names of the candidate compounds are shown in Table 1.
(§1) To further study reproducibility of the candidate drugs obtained by the primary screening, secondary screening was conducted. In addition to Aβ40, Aβ42, Aβ42/40 ratio, Aβ38, Aβ43, sAPPα, sAPPβ were also studied and each numerical value was obtained.

The next assay concerns Aβ42. As to the kind of experiment: Aβ42 in FAD1 iPS cell-derived nerve cells (primary/secondary screening, dose dependency). The following applies: secondary screening, FAD1 iPS cell-derived nerve cells, numerical value (Aβ change rate). A digest of the protocol:
(§2)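 Cerebral cortex neurons were induced from FAD1 patient iPS cells by doxycycline-inducible NGN2, delivered by PiggyBac. Aβ40 and Aβ42 in the culture medium gave the Aβ42/40 ratio, with dose dependency examined in primary and secondary screens. The secondary screen also covered Aβ38, Aβ43, sAPPα and sAPPβ.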

The subject of the next assay is Aβ42/40 ratio. As to the kind of experiment: Aβ42/40 ratio in FAD1 iPS cell-derived nerve cells (primary/secondary screening, dose dependency). To be noted: secondary screening. A digest of the protocol: as §2
The test system of the next assay is Aβ38. Briefly: Aβ38 in FAD1 iPS cell-derived nerve cells (secondary screening). Set-up: scale not given here. As for the experimental part: as §1
The test system of a further assay is Aβ43. As to the kind of experiment: Aβ43 in FAD1 iPS cell-derived nerve cells (secondary screening). Set-up: scale not given here. As for the experimental part:
as §1

The subject of the next assay is sAPPα. Briefly: sAPPα in FAD1 iPS cell-derived nerve cells (secondary screening). To be noted: secondary screening, FAD1 iPS cell-derived nerve cells. Set-up: scale not given here. The protocol:
as §1

Another assay concerns sAPPβ. Briefly: sAPPβ in FAD1 iPS cell-derived nerve cells (secondary screening). Set-up: sAPPβ: scale not given here. To be noted: secondary screening, FAD1 iPS cell-derived nerve cells. The protocol:
as §1

BITOSCANATE [compound 123] displayed an Aβ40 with Aβ40 of 0.93. In the assay on Aβ42, this sequence displayed an Aβ42 of 0.89. The “Ratio Aβ42/40” value with Aβ42/40 ratio worked out at 0.96. The same sequence gave an Aβ38 with Aβ38 of 1.01. Besides, the Aβ43 in the assay with Aβ43 was determined as 1. Moreover, the sAPPα in the assay with sAPPα was found to be 0.76. Also, the sAPPβ in the assay on sAPPβ was found to be 0.73.

The sequence CARBADOX [compound 29] yielded an Aβ40 in the assay with Aβ40 of 0.84. The sequence further showed an Aβ42 in the assay on Aβ42 of 0.74. Besides, in the assay with Aβ42/40 ratio, the “Ratio Aβ42/40” value is 0.88. The same sequence came in with an Aβ38 with Aβ38 of 0.87. Moreover, in the assay on Aβ43, the Aβ43 is 0.76. The same sequence registered a sAPPα in the assay on sAPPα of 0.86. This sequence came in with a sAPPβ in the assay with sAPPβ of 0.78.

For the sequence CEFAMANDOLE [compound 66], the Aβ40 in the assay on Aβ40 is 1.08. The sequence also gave an Aβ42 with Aβ42 of 0.97. Besides, in the assay with Aβ42/40 ratio, the “Ratio Aβ42/40” value is on record as 0.9. Further, the Aβ38 with Aβ38 was 1.11. Moreover, the Aβ43 in the assay on Aβ43 was 1.11. The sAPPα in the assay on sAPPα was determined as 0.79. The sAPPβ in the assay with sAPPβ is 0.78.

DESOXYCORTICOSTERONE [compound 98] returned an Aβ40 in the assay on Aβ40 of 1. In the assay with Aβ42, this sequence displayed an Aβ42 of 0.9. For the same sequence, the “Ratio Aβ42/40” value in the assay on Aβ42/40 ratio is recorded as 0.9. For the same sequence, in the assay with Aβ38, the Aβ38 amounted to 1.09. This sequence also returned an Aβ43 in the assay with Aβ43 of 0.89. For the same sequence, the sAPPα in the assay on sAPPα is recorded as 0.88. This sequence also came in with a sAPPβ with sAPPβ of 0.87.

In the assay with Aβ40, RIFAXIMIN [compound 97] returned an Aβ40 of 0.92. Moreover, in the assay on Aβ42, the Aβ42 came to 0.84. Moreover, the “Ratio Aβ42/40” value in the assay on Aβ42/40 ratio came out at 0.91. The Aβ38 in the assay with Aβ38 was 1.09. In the assay on Aβ43, this sequence gave an Aβ43 of 0.92. In the assay on sAPPα, this sequence yielded a sAPPα of 0.91. The sequence further came in with a sAPPβ with sAPPβ of 0.95.
